Converted amounts (≈) assume the structure as drawn.
Columns and labels:
MCF7 = test system: MCF7; design: method as in Khairul et al. [2020]; details: reported chalcone derivatives; ref Khairul et al. [2020]; cited from earlier work
[1] = test system: human laryngeal carcinoma (HEP2) cells; assay: SRB cytotoxic assay, HEP2; assay type: cell-based; details: HEp-2, 48 h; for inhibition at 100 µg/mL: single dose 100 µg/mL, read-out: %Inhibition at100 µg/mL HEP2
Description: (§1) All the prepared compounds were screened at a concentration of 100 µg/mL against six different human cell lines: human laryngeal carcinoma (HEP2), human colorectal carcinoma (HCT116), human breast carcinoma (MCF7), human Lung carcinoma (A549), human liver carcinoma (HEPG2), and normal African Green monkey kidney cell line (VERO). Doxorubicin was used as a positive control for comparison purposes.
(§2) The human laryngeal carcinoma (HEP2), colorectal carcinoma (HCT116), breast carcinoma (MCF7), Lung carcinoma (A549), liver carcinoma (HEPG2), and normal African Green monkey kidney cell line (VERO) were purchased from American Tissue Culture Collection (Rockville, MD, USA). The cells were treated for 48 h with a single dose (100 µg/mL) of all the tested chalcones. […] In brief, the cells were seeded in a 96-well microtiter plate at a concentration of 5×10^3 cells/well in 100 µL fresh RPMI-1640 medium and left to attach to the plates for 24 h. Then, cells were incubated with 100 μL of different concentrations (50, 25, 12.5, 6.25, and 0.0 µg/mL) of 5c in triplicate at 37 °C for 48 h. After that, the cells were fixed with 10 µL cold 100% Trichloroacetic acid (TCA) for 1h at 4 °C. The wells were then washed 1 time with distilled water using (automatic Tecan washer, Germany) and stained for 30 min at room temperature with 50 µL 0.4% SRB dissolved in 1% acetic acid. The plates were air-dried and the dye was solubilized with 100 µl/well of 1M tris base (pH 10.5) for 5 min. The optical density (O.D.) of each well was measured spectrophotometrically at 570 nm with an ELISA microplate reader (Sunrise Tecan reader, Germany) with automatic shaking for 30 seconds before reading. The mean background absorbance was subtracted automatically and mean values for each drug concentration were calculated. The percentage of cell survival was calculated as follows: Survival fraction= O.D. (treated cells)/ O.D. (control cells) (Bhat et al. [2023]).

[2] = test system: human colorectal carcinoma (HCT116) cells; assay: SRB cytotoxic assay, HCT116; assay type: cell-based; details: HCT-116, single dose 100 µg/mL, 48 h, read-out: %Inhibition at100 µg/mL HCT116
Description: as §1, §2

[3] = test system: human breast carcinoma (MCF7) cells; assay: SRB cytotoxic assay, MCF7; assay type: cell-based; details: MCF7, 48 h; for inhibition at 100 µg/mL: single dose 100 µg/mL, read-out: %Inhibition at100 µg/mL MCF7
Description: as §1, §2

[4] = test system: human Lung carcinoma (A549) cells; assay: SRB cytotoxic assay, A549; assay type: cell-based; details: single dose 100 µg/mL, 48 h, read-out: %Inhibition at100 µg/mL A549
Description: as §1, §2

[5] = test system: human liver carcinoma (HEPG2) cells; assay: SRB cytotoxic assay, HEPG2; assay type: cell-based; details: single dose 100 µg/mL, 48 h, read-out: %Inhibition at100 µg/mL HEPG2
Description: as §1, §2

[6] = test system: normal African Green monkey kidney cell line (VERO); assay: SRB cytotoxic assay, VERO normal cells; assay type: cell-based; details: Chlorocebus sabaeus, single dose 100 µg/mL, 48 h, read-out: %Inhibition at100 µg/mL VERO
Description: as §1, §2

| melting point [°C] | Structure (SMILES) | IC50 cytotoxic effect against MCF7 (MCF7) [µg/mL] | inhibition at 100 µg/mL [1] [%] | inhibition at 100 µg/mL [2] [%] | inhibition at 100 µg/mL [3] [%] | inhibition at 100 µg/mL [4] [%] | inhibition at 100 µg/mL [5] [%] | inhibition at 100 µg/mL [6] [%] | IC50 [1] [µg/mL] | IC50 [3] [µg/mL] |
| --- | --- | --- | --- | --- | --- | --- | --- | --- | --- | --- |
|  | CCCCCCOc1ccc(/C=C/C(=O)c2ccc(C#N)cc2)cc1 [(E)-1-(4-cyanophenyl)-3-(4-(hexyloxy)phenyl) prop-2-en-1-one] | 13.75 (≈ 41.2 µM) |  |  |  |  |  |  |  |  |
|  | CCCCCCOc1ccc(/C=C/C(=O)c2ccc([N+](=O)[O-])cc2)cc1 [(E)-1-(4-nitrophenyl)-3-(4-(hexyloxy)phenyl) prop-2-en-1-one] | 14.75 (≈ 41.7 µM) |  |  |  |  |  |  |  |  |
| 194 to 196 | O=C(COc1ccc(C=CC(=O)c2cccs2)cc1)Nc1ccccc1 [Compound 5a, 2-(4-(3-Oxo-3-(thiophen-2-yl)prop-1-en-1-yl)phenoxy)-N-phenylacetamide] |  | 4.53 ± 0.08 | 5.18 ± 1.6 | 33.7 ± 1.5 | 22 ± 1.4 | 30 ± 1.2 | 55 ± 3 |  |  |
| 202 to 204 | Cc1ccc(NC(=O)COc2ccc(C=CC(=O)c3cccs3)cc2)cc1 [Compound 5b, 2-(4-(3-Oxo-3-(thiophen-2-yl)prop-1-en-1-yl)phenoxy)-N-(p-tolyl)acetamide] |  | 7.2 ± 1.4 | 5.92 ± 1.2 | 0.52 ± 2.1 | 10.2 ± 2 | 25 ± 1.9 | 60 ± 1 |  |  |
| 198 to 200 | O=C(COc1ccc(C=CC(=O)c2cccs2)cc1)Nc1ccc(Cl)cc1 [Compound 5d, N-(4-Chlorophenyl)-2-(4-(3-oxo-3-(thiophen-2-yl)prop-1-en-1-yl)phenoxy)acetamide] |  | 0.36 ± 0.05 | 0.85 ± 1.1 | 40.09 ± 0.07 | 44.1 ± 1.3 | 45.2 ± 1.7 | 80 ± 2 |  |  |
|  | O=C(COc1ccc(C(=O)C=Cc2cccs2)cc1)Nc1ccccc1 [Compound 9a, N-Phenyl-2-(4-(3-(thiophen-2-yl)acryloyl)phenoxy)acetamide] |  | > 75 | 44.7 ± 1 | > 75 | 52 ± 2.7 | 64 ± 1.5 | 58 ± 1.4 | 15.5 (≈ 42.6 µM) | 24.5 (≈ 67.4 µM) |
| 200 to 202 | Cc1ccc(NC(=O)COc2ccc(C(=O)C=Cc3cccs3)cc2)cc1 [Compound 9b, 2-(4-(3-(Thiophen-2-yl)acryloyl)phenoxy)-N-(p-tolyl)acetamide] |  | 17.9 ± 1.3 | 0.92 ± 1.7 | 18.6 ± 0.05 | 33 ± 3.1 | 26 ± 1.7 | 15 ± 2.4 |  |  |
| 205 to 207 | COc1ccc(NC(=O)COc2ccc(C(=O)C=Cc3cccs3)cc2)cc1 [Compound 9c, N-(4-Methoxyphenyl)-2-(4-(3-(thiophen-2-yl)acryloyl)phenoxy)acetamide] |  | 7.2 ± 1.7 | 16.3 ± 1.9 | 1.81 ± 1.3 | < 10 | < 10 | < 10 |  |  |
| 193 to 195 | O=C(COc1ccc(C(=O)C=Cc2cccs2)cc1)Nc1ccc(Cl)cc1 [Compound 9d, N-(4-Chlorophenyl)-2-(4-(3-(thiophen-2-yl)acryloyl)phenoxy)acetamide] |  | 17.9 ± 2.3 | 6.66 ± 3.3 | 2.28 ± 4.1 | < 10 | < 10 | 10 ± 1 |  |  |
|  | COc1cccc2c1C(=O)c1c(O)c3c(c(O)c1C2=O)C[C@@](O)(C(=O)CO)C[C@@H]3O[C@H]1C[C@H](N)[C@H](O)[C@H](C)O1 [Doxorubicin, reference compound] |  | 83.2 ± 1.1 | 71.5 ± 0.9 | 86.6 ± 1.6 | 77 ± 1.5 | 81 ± 2 | 45 ± 2 | 11 (≈ 20.2 µM) | 5.5 (≈ 10.1 µM) |

— paper PMC11582173, “Synthesis, cytotoxicity, anti-inflammatory, anti-metastatic and anti-oxidant activities of novel chalcones incorporating 2-phenoxy-N-arylacetamide and thiophene moieties: induction of apoptosis in MCF7 and HEP2 cells” (Naunyn-Schmiedeberg's Archives of Pharmacology, 2024)
